The target of one test is T1, purified TrVKORL (Takifugu rubripes, UniProt Q6TEK8).
T1 sequence (Q6TEK8 1-175): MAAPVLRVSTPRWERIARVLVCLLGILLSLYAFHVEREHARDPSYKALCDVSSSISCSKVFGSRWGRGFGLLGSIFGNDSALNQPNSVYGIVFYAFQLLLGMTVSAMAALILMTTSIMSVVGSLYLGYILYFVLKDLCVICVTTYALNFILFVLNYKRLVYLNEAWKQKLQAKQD
Description: Fluorometric activity assay of purified TrVKORL. Type of test: biochemical.

Another test concerns the target T2, hVKORL (Homo sapiens, UniProt Q8N0U8).
T2 sequence (Q8N0U8 1-176): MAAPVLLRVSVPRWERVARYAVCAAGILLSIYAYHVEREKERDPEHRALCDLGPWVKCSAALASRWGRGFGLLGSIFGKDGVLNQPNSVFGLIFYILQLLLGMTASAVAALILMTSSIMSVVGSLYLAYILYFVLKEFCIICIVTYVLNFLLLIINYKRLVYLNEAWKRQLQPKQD
Kind of test: Cell-based activity assay.

A further test has as its target T3, purified hVKORL (Homo sapiens, UniProt Q8N0U8).
T3 sequence (Q8N0U8 1-176): T2 sequence (Q8N0U8 1-176)
Kind of test: Fluorometric activity assay of purified hVKORL. Type of test: biochemical. The note with it: IC50, purified and analyzed in LMNG, GSH, 250 nM enzyme, KO as substrate.

The target of test [1] is purified complex of hVKOR and warfarin (Homo sapiens, UniProt Q9BQB6). The note with it: DTT as reductant.
Sequence of purified complex of hVKOR and warfarin (Q9BQB6 whole entry, one chain of several): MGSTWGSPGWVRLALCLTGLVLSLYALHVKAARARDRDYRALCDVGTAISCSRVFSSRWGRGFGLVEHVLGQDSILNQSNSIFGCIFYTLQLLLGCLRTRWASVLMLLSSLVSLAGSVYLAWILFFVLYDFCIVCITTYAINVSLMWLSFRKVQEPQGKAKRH
The target in test [2] is T4, Takifugu rubripes VKOR-like (TrVKORL) (Takifugu rubripes, UniProt Q6TEK8).
T4 sequence (Q6TEK8 1-175): T1 sequence (Q6TEK8 1-175)
Description: Cell-based activity assay.

A word on the IC50: it is the point on the concentration scale where inhibition reaches its midpoint.

SMILES strings stand for the structures.

For the compound `CC(=CCC12OC1(C)C(=O)c1ccccc1C2=O)CCCC(C)CCCC(C)CCCC(C)C` (centres unmarked) [KO, vitamin K epoxide], the “decrease of KM with GSH reduction compared to DTT reduction” value on purified TrVKORL (TrVKORL, KO as substrate) worked out at 3.4 fold.

With `CC(=O)CC(c1ccccc1)c1c(O)c2ccccc2oc1=O` (centres unmarked) [warfarin], the IC50 is 238 nM on hVKORL; 250 to 260 nM at purified TrVKORL (IC50 of warfarin, in presence of GSH, enzyme concentration 500 nM, KO or K); approximately 250 nM on purified TrVKORL (apparent IC50, GSH as reductant, 500 nM TrVKORL, K as substrate); approximately 260 nM at purified TrVKORL (apparent IC50, GSH as reductant, 500 nM TrVKORL, KO as substrate); 3800 nM at purified TrVKORL (warfarin IC50, DTT as reductant, 500 nM enzyme, K as substrate); 4700 nM on purified TrVKORL (warfarin IC50, DTT as reductant, 500 nM enzyme, KO as substrate). Also, the IC50 on purified hVKORL was 120 nM; in test [2] it was 97 nM. The Ki on purified TrVKORL (Ki^app estimated from the Morrison equation, GSH, K as substrate, low enzyme concentration) was 29 nM. For the same compound, the “warfarin inhibition (in words)” value in test [1] was “poorly inhibited”.

These data come from paper PMC7484342 (Journal of molecular biology, 2020).
